In this assay the test system is Human subcutaneous pre-adipocytes. The assay can be described thus: Lipogenesis Assay (AdipoRed staining). The conditions noted are these: AdipoRed fluorescence, NI = no inhibition at concentration less than/equal to 1 mM. The assay is classed as cell-based. As to the method:
Lipogenesis is the process by which acetyl-CoA is converted to fatty acid. Through lipogenesis and subsequent triglyceride synthesis, energy can be stored in the form of adipose tissue (i.e. fats). To determine what effect, if any, activating compounds (shown in TABLE 1) had on lipogenesis, the protocol listed below was used.
To determine whether the activating compounds (shown in TABLE 1) impacted the formation of white adipocytes from pre-adipocytes, a lipogenesis assay was performed. The cells utilized in the protocol were cryo-preserved Human subcutaneous pre-adipocytes superlot (Zen-Bio, Inc., Research Triangle Park, N.C., Cat # SP-F-SL). The growth media used was PM-1 (Zen-Bio, Inc., Research Triangle Park, N.C., cat # PM-1) plus 5 ng/mL Epidermal Growth Factor (EGF). The PM-1+5 ng/mL EGF was prepared by adding 12.5 uL of 200 ug/mL EGF stock to 500 mL PM-1. The differentiation media used was DM-2 (Zen-Bio, Inc., Research Triangle Park, N.C., cat # DM-2). The adipocyte maintenance media used was AM-1 (Zen-Bio, Inc., Research Triangle Park, N.C., cat # AM-1).
First, the human subcutaneous pre-adipocyte cells were thawed in a 37° C. water bath. Next, the thawed pre-adipocyte cells were added to 9 mL of growth medium (PM-1) at 20° C. in a 15 mL polypropylene tube (Bioexpress, Corning, Corning, N.Y.). The tube was centrifuged at 280×g (˜1100 rpm) at 20° C. for 5 min. After 5 min, the supernatant was removed and the accumulated solids were re-suspended in 2 mL of PM-1 using trituration. The suspension of cells was counted under 100× magnification using a Cyto C-Chip hemacytometer (Incyto, Seoul, South Korea, cat # DHC-N01-5). In order to proceed, 15-50 cells per 1×1 mm square in hemacytometer was needed. If, the number of cells per square was not met, 6.7×10^5 (670,000) cells per T75 flask (Bioexpress, Corning, Corning, N.Y.) were added to each square and the suspension was diluted to 20 mL with PM-1. Every other day, new media was added to replace media removed due to metabolism by the cells. The cells were re-counted as described previously. Cells were grown to 80-90% confluence, which took approximately 4-5 days. 80-90% confluence is determined by visual inspection of the area of the flask occupied by the cells. When 80-90% of the flask area has been occupied, cells are at 80-90% confluence. Cell colonies were then split 1:6 by harvesting from a single flask and equally dividing the harvested cells into six flasks. Colonies were not allowed to exceed 3 passages and were not grown to complete confluence. The pre-adipocytes were grown until they contact with other cells in the flask to aid differentiation into white or brown adipocytes.
After the pre-adipocytes were sufficiently grown to 90% confluence, the cells were ready for differentiation and treatment with an activating compound. Cells were washed with 3 mL of PBS and detached using 3 mL of Trypsin EDTA. The cells were incubated at 37° C. for 5 minutes. Next, the cells were centrifuged at 280×g at 20° C. for 5 minutes. The supernatant was discarded and the resulting pellet was re-suspended in 10 mL of PM-1 using trituration. Cells were counted at 100× magnification and the cells were diluted to 86,667 cells/mL (˜13,000 cells/150 μL) by adding the necessary amount of PM-1 to achieve the desired concentration. Upon addition of PM-1, samples were swirled by hand to evenly disperse the cells prior to plating.
Once confluence is reached, 150 μL of differentiation media (DM-2) was added (DAY 0). Samples were incubated at 37° C. for 6 days. On DAY 6, 90 μL of media was removed from each sample via aspiration, without touching the bottom of the well. Next, 140 μL of adipocyte maintenance medium (AM-1) was added. The AM-1 ran down the side of well. On DAY 6, activating compounds were added (2 μL of 10 mM activating compound) to give a final concentration of 100 μM of activating compounds. […]

In general, IC50 refers to the concentration that gives 50% inhibition. A low value points to higher potency. Turning to `CC1CCC(C(C)C)C(O)C1` (centres unmarked) [Menthol], the “Lipogenesis IC50” value is “no inhibition”. Also, the IC50 (Homo sapiens) is over 1000 µM.

The compound `CC(C)[C@@H]1CC[C@@H](C)C[C@H]1C(=O)NC[C@@H](NC(=O)[C@H](C)N)c1ccccc1` [Formula III] displayed an IC50 (Homo sapiens) of 25 µM.

`CCOC(=O)CNC(=O)[C@@H]1C[C@H](C)CC[C@H]1C(C)C` [WS-5] gave an IC50 of 600 µM. For the same compound, it took 500 µM to reach half-maximal inhibition (Homo sapiens) (IC50).

For the origin of these results see patent publication US20200138764A1, “METHODS AND DEVICES FOR ACTIVATING ADIPOSE TISSUE” (The Procter & Gamble Company, priority 2018, published 2020).
